Source: patent US20220169680A1 (priority 2018, published 2022)
“Also recorded” adds a separate entry of the source. Read-outs that look alike come from different tables or passages of the source.

How the values were obtained:
[1] = system: A549 cells; assay type: cell-based
[2] = system: MRCS cells; assay type: cell-based
[3] = system: HeLa cells; assay type: cell-based
[4] = system: 293T cells; assay type: cell-based
[5] = system: A549 cells; assay type: cell-based; remark: listed apart in the source
[6] = system: A549 cells; assay type: cell-based; remark: listed apart in the source
[7] = system: A549 cells; assay type: cell-based; remark: listed apart in the source
[8] = system: A549 cells; assay type: cell-based; remark: listed apart in the source
[9] = system: 3′ UTR region of RELA gene; assay type: cell-based
[10] = system: A549 cells; assay type: cell-based; remark: listed apart in the source
[11] = system: 293T cell, HUVEC cell, HCT-116 cell, MKN-45 cell, MRCS cell, U397 cell and ESF-1 cell; assay type: cell-based
[12] = system: A549 cells; assay type: cell-based; remark: listed apart in the source
[13] = system: LPS-induced acute lung injury in mice; set-up: species or system C57 BL/6 male mice; conditions: mouse, in vivo
[14] = system: HEK293T cells; assay type: cell-based
[15] = system: A549 cells; assay type: cell-based; remark: listed apart in the source
[16] = system: A549 cells; assay type: cell-based; remark: listed apart in the source

**Q.** How did the cell entry [1] turn out when “CIYRRLKYGLKRGPSTEG [Jilin-2004(H5N1)-M2-50-67]” was run?
**A.** entered A549 cells

**Q.** And the “cell entry at lower concentrations” value [1]?
**A.** could still enter A549 cells

**Q.** What about the cell penetration properties [2] of the same sequence?
**A.** consistent with the results obtained using A549 cells

**Q.** What about the cell penetration properties [3] of the same sequence?
**A.** consistent with the results obtained using A549 cells

**Q.** For “DRFFFKRIFRRFKFRLKRRPST [Jilin-2004(H5N1)-M2-44-65 mut12]”, which “cell-penetrating peptide function compared with the parent polypeptide” value [1] is on record?
**A.** stronger than that of the parent Jilin-2004(H5N1)-M2-44-65 polypeptide

**Q.** And the “cell-penetrating peptide function compared with the parent polypeptide” value [2]?
**A.** stronger than that of the parent Jilin-2004(H5N1)-M2-44-65 polypeptide

**Q.** And the “cell-penetrating peptide function compared with the parent polypeptide” value [4]?
**A.** stronger than that of the parent Jilin-2004(H5N1)-M2-44-65 polypeptide

**Q.** Which “cell-penetrating peptide function compared with the parent polypeptide” value [1] does the source give for “DRFFFKRIYRRLKYRLKRRPKV [Jilin-2004(H5N1)-M2-44-65 mut9]” here?
**A.** stronger than that of the parent Jilin-2004(H5N1)-M2-44-65 polypeptide

**Q.** And the “cell-penetrating peptide function compared with the parent polypeptide” value [2]?
**A.** stronger than that of the parent Jilin-2004(H5N1)-M2-44-65 polypeptide

**Q.** What about the “cell-penetrating peptide function compared with the parent polypeptide” value [4] of the same sequence?
**A.** stronger than that of the parent Jilin-2004(H5N1)-M2-44-65 polypeptide

**Q.** Which results are given for “DRFFFKRIYRRLKYRLKRRPST [Jilin-2004(H5N1)-M2-44-65 mut8]”?
**A.** cell-penetrating peptide function compared with the parent polypeptide [1]: stronger than that of the parent Jilin-2004(H5N1)-M2-44-65 polypeptide; cell-penetrating peptide function compared with the parent polypeptide [2]: stronger than that of the parent Jilin-2004(H5N1)-M2-44-65 polypeptide; cell-penetrating peptide function compared with the parent polypeptide [4]: stronger than that of the parent Jilin-2004(H5N1)-M2-44-65 polypeptide; ability to carry small RNA compared with the other two polypeptides tested [5]: even stronger; carrying Cy3-labeled small RNA into cells [5]: can carry small RNA into cells; effect compared with transfection reagent RNAiMax [5]: stronger than that of the transfection reagent RNAiMax

**Q.** What does the source list for “DRLFFKCIYRRLK [Jilin-2004(H5N1)-M2-44-56]”?
**A.** cell-penetrating peptide function compared with positive control TAT [1]: stronger than that of the positive control TAT; ability to carry small RNA compared with TAT at the same concentration [6]: significantly stronger; carrying FAM-labeled small RNA into cells [6]: can all carry small RNA into cells; ability to carry proteins into the cell compared with TAT at the same concentration [7]: significantly stronger; carrying β-galactosidase protein into the cell [7]: could carry β-galactosidase protein into the cell; cell entry of polypeptide carrying GFP protein [8]: observed; effect of carrying GFP protein compared with positive control TAT [8]: stronger than that of the positive control TAT; ability to carry PGY-dsRNA-6 compared with positive control TAT [9]: stronger than that of the positive control TAT; carrying PGY-dsRNA-6 into cells and fulfilling its function (luciferase reporter) [9]: could all carry PGY-dsRNA-6 into cells and fulfill its function; carrying Cy3-labeled small RNA into cells [5]: can carry small RNA into cells; effect compared with transfection reagent RNAiMax [5]: stronger than that of the transfection reagent RNAiMax

**Q.** Which results are given for “DRLFFKCIYRRLKYGLKRGPST [Jilin-2004(H5N1)-M2-44-65]”?
**A.** carrying Cy3-labeled small RNA into cells (super high resolution microscope) [10]: can carry Cy3-labeled small RNA into A549 cells; effect compared with RNAiMax or TAT (super high resolution microscope) [10]: stronger than that of the transfection reagent RNAiMax or of TAT; cell entry effect compared with existing cell-penetrating peptides (Table 4) [1]: significantly better cell entry effects than existing cell-penetrating peptides; cell-penetrating peptide function compared with positive control TAT [1]: stronger cell-penetrating peptide functions than that of the positive control TAT; entry effect compared with other C-terminally truncated polypeptides [1]: even better entry effects than other polypeptides; cell-penetrating peptide function compared with positive control TAT [2]: stronger than that of the positive control TAT; entry effect compared with other fragments in different cell lines [11]: even better entry effects; cell-penetrating peptide function compared with positive control TAT [4]: stronger than that of the positive control TAT; carrying Cy3-labeled small RNA into cells [5]: can carry small RNA into cells; effect compared with transfection reagent RNAiMax [5]: stronger than that of the transfection reagent RNAiMax; ability to carry small RNA into cells compared with the transfection reagent RNAiMax group, qPCR [12]: stronger than the transfection reagent RNAiMax group; ability to carry small RNA into cells, qPCR [12]: all had the ability to carry small RNA into cells

**Q.** What does the source list for “DRLFFKCIYRRLKYGLKRRPST [Jilin-2004(H5N1)-M2-44-65 mut25]”?
**A.** cell-penetrating peptide function compared with the parent polypeptide [1]: stronger than that of the parent Jilin-2004(H5N1)-M2-44-65 polypeptide; cell-penetrating peptide function compared with the parent polypeptide [2]: stronger than that of the parent Jilin-2004(H5N1)-M2-44-65 polypeptide; cell-penetrating peptide function compared with the parent polypeptide [4]: stronger than that of the parent Jilin-2004(H5N1)-M2-44-65 polypeptide

**Q.** Which “cell-penetrating peptide function compared with the parent polypeptide” value [1] does the source give for “DRLFFKCIYRRLKYRLKRRPST [Jilin-2004(H5N1)-M2-44-65 mut26]” here?
**A.** stronger than that of the parent Jilin-2004(H5N1)-M2-44-65 polypeptide

**Q.** What about the “cell-penetrating peptide function compared with the parent polypeptide” value [4] of the same sequence?
**A.** stronger than that of the parent Jilin-2004(H5N1)-M2-44-65 polypeptide

**Q.** And the “ability to carry small RNA into cells compared with the transfection reagent RNAiMax group, qPCR” value [12]?
**A.** stronger than the transfection reagent RNAiMax group

**Q.** What does the source list for “DRLFFKRIYRRLKYRLKRRPST [Jilin-2004(H5N1)-M2-44-65 mut27]”?
**A.** cell-penetrating peptide function compared with the parent polypeptide [4]: stronger than that of the parent Jilin-2004(H5N1)-M2-44-65 polypeptide; ability to carry small RNA into cells compared with the transfection reagent RNAiMax group, qPCR [12]: stronger than the transfection reagent RNAiMax group

**Q.** For “FFKCIYRRLKYGLKRGPS [Jilin-2004(H5N1)-M2-47-64]”, which cell entry [1] is on record?
**A.** entered A549 cells

**Q.** What about the “cell entry at lower concentrations” value [1] of the same sequence?
**A.** could still enter A549 cells

**Q.** What about the “cell entry effect compared with TAT positive control” value [1] of the same sequence?
**A.** stronger than that of the TAT polypeptide

**Q.** What about the cell penetration properties [2] of the same sequence?
**A.** consistent with the results obtained using A549 cells

**Q.** What about the cell penetration properties [3] of the same sequence?
**A.** consistent with the results obtained using A549 cells

**Q.** What does the source list for GRKKRRQRRRPPQ [TAT, reference compound]?
**A.** entry of miR1246 antagomir into lung tissue of mice [13]: almost no effect; carrying NS1-GFP plasmid into cells and GFP expression [14]: almost no expression of GFP fluorescent protein; cell entry [1]: did not show cell entry; cell entry after 5 min incubation [1]: the entry into the cell was observed; cell entry at 1 h [1]: the effect was obvious; cell entry of rhodamine-labeled polypeptide [15]: could all enter A549 cells; ability to carry small RNA (PGY-sRNA-26) into cells, qPCR [12]: very weak

**Q.** Which “ability to carry small RNA compared with TAT at the same concentration” value [16] does the source give for “RLFFKCIYRRLKYGLKRG [Jilin-2004(H5N1)-M2-45-62]” here?
**A.** significantly stronger

**Q.** And the “carrying Cy3-labeled small RNA into cells” value [16]?
**A.** can carry small RNA into cells

**Q.** And the “carrying NS1-GFP plasmid into cells and GFP expression” value [14]?
**A.** could carry NS1-GFP plasmid into HEK293 cells, and GFP protein was expressed in the nucleus

**Q.** What about the cell entry [1] of the same sequence?
**A.** still had a significant cell entry effect; also recorded: entered A549 cells

**Q.** And the “cell entry at lower concentrations” value [1]?
**A.** could still enter A549 cells

**Q.** And the “cell entry effect compared with TAT positive control” value [1]?
**A.** stronger than that of the TAT polypeptide

**Q.** And the “cell entry effect compared with existing cell-penetrating peptides (Table 4)” value [1]?
**A.** significantly better cell entry effects than existing cell-penetrating peptides

**Q.** And the “cell entry of FITC-labeled polypeptide” value [1]?
**A.** could achieve significant A549 cell entry at all concentrations tested

**Q.** What about the cell-penetrating peptide effect [1] of the same sequence?
**A.** a good cell-penetrating peptide effect

**Q.** What about the “cell-penetrating peptide function compared with positive control TAT” value [1] of the same sequence?
**A.** stronger than that of the positive control TAT

**Q.** What about the “entry effect compared with FITC-labeled TAT (positive control)” value [1] of the same sequence?
**A.** much stronger than FITC-labeled TAT polypeptide

**Q.** And the “ability to carry small RNA compared with TAT at the same concentration” value [6]?
**A.** significantly stronger

**Q.** What about the “carrying FAM-labeled small RNA into cells” value [6] of the same sequence?
**A.** can all carry small RNA into cells

**Q.** And the cell penetration properties [2]?
**A.** consistent with the results obtained using A549 cells

**Q.** What about the “ability to carry PGY-dsRNA-6 compared with positive control TAT” value [9] of the same sequence?
**A.** stronger than that of the positive control TAT

**Q.** And the “carrying PGY-dsRNA-6 into cells and fulfilling its function (luciferase reporter)” value [9]?
**A.** could all carry PGY-dsRNA-6 into cells and fulfill its function

**Q.** What about the “cell-penetrating peptide function (confocal imaging)” value [15] of the same sequence?
**A.** all had cell-penetrating peptide functions

**Q.** What about the “entry effect compared with other fragments in different cell lines” value [11] of the same sequence?
**A.** even better entry effects

**Q.** What about the cell penetration properties [3] of the same sequence?
**A.** consistent with the results obtained using A549 cells

**Q.** What about the “ability to carry small RNA (PGY-sRNA-26) into cells, qPCR” value [12] of the same sequence?
**A.** had the ability to carry small RNA into the cells

**Q.** What about the “ability to carry small RNA into cells compared with the transfection reagent RNAiMax group, qPCR” value [12] of the same sequence?
**A.** stronger than the transfection reagent RNAiMax group

**Q.** What about the “ability to carry small RNA into cells, qPCR” value [12] of the same sequence?
**A.** all had the ability to carry small RNA into cells

**Q.** “RRFFFKCIYRRLKYGLKRGPST [Jilin-2004(H5N1)-M2-44-65 mut17]” was tested. Which “cell-penetrating peptide function compared with the parent polypeptide” value [4] did it give?
**A.** stronger than that of the parent Jilin-2004(H5N1)-M2-44-65 polypeptide

**Q.** What about the “ability to carry small RNA into cells compared with the transfection reagent RNAiMax group, qPCR” value [12] of the same sequence?
**A.** stronger than the transfection reagent RNAiMax group

**Q.** Which results are given for “SLFFKCIYRRLKYGLKRG [Jilin-2004(H5N1)-M2-45-62 mut45]”?
**A.** cell-penetrating peptide function compared with the parent polypeptide (confocal imaging) [15]: stronger than that of the parent Jilin-2004(H5N1)-M2-45-62 polypeptide; ability to carry small RNA into cells compared with the transfection reagent RNAiMax group, qPCR [12]: stronger than the transfection reagent RNAiMax group
